According to publication PMC11828871, “Structural basis of anticancer drug recognition and amino acid transport by LAT1” (Nature Communications, 2025):

Assays:
LAT1 [1] = target: T1, LAT1 (Homo sapiens, UniProt Q01650); test: cryo-EM structure ([…] Å, occluded); cis inhibition and counterflow assays in oocytes
T1 construct: gene SLC7A5; LAT1–CD98hc in lipid nanodiscs with Fab170; with CD98hc (4F2hc; SLC3A2)

LAT1 [2] = target: T1, LAT1; test: cryo-EM structure in nanodiscs ([…] Å); IC50 from L-[…]Leu uptake in Xenopus oocytes; assay type: cell-based
LAT1 [3] = target: T2, LAT1 (Homo sapiens, UniProt Q01650, F252W); test: inhibition of L-[…]Leu uptake in Xenopus oocytes; assay type: cell-based
T2 construct: gene SLC7A5; F252W LAT1 co-expressed with CD98hc in Xenopus oocytes; with CD98hc (4F2hc; SLC3A2)
T2 sequence (Q01650 whole entry F252W): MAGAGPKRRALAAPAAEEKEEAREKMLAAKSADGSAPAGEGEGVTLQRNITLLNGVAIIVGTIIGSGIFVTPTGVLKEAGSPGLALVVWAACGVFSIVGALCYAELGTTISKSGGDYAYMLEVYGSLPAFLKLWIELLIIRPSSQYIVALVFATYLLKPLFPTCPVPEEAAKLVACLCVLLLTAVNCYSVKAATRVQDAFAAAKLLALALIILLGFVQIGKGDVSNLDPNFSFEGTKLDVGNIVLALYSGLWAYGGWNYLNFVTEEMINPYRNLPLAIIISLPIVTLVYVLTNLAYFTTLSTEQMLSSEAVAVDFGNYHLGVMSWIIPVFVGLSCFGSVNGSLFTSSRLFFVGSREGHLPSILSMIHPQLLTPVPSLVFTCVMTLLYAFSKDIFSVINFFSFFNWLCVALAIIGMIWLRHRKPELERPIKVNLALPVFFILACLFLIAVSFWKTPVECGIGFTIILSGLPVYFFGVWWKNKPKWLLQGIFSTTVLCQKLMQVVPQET
T2 sequence (P08195 103-630 partner): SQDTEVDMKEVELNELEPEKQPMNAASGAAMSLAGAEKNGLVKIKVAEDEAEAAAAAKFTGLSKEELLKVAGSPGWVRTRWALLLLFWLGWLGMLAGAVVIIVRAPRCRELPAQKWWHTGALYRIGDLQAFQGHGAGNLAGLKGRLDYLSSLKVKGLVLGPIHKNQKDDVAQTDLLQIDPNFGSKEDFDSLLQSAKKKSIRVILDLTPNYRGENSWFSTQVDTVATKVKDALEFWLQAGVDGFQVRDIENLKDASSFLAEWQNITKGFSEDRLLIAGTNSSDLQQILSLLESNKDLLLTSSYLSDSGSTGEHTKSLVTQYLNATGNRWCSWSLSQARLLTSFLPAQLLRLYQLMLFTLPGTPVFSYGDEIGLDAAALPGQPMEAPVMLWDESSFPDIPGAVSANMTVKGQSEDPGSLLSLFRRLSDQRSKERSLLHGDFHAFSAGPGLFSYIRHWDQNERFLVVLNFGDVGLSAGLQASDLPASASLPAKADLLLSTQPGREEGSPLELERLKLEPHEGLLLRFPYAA

LAT1 [4] = target: T3, LAT1 (Homo sapiens, UniProt Q01650, F400V); test: inhibition of L-[…]Leu uptake in Xenopus oocytes; assay type: cell-based
T3 construct: gene SLC7A5; F400V LAT1 expressed in Xenopus oocytes; with CD98hc (4F2hc; SLC3A2)
T3 sequence (Q01650 whole entry F400V): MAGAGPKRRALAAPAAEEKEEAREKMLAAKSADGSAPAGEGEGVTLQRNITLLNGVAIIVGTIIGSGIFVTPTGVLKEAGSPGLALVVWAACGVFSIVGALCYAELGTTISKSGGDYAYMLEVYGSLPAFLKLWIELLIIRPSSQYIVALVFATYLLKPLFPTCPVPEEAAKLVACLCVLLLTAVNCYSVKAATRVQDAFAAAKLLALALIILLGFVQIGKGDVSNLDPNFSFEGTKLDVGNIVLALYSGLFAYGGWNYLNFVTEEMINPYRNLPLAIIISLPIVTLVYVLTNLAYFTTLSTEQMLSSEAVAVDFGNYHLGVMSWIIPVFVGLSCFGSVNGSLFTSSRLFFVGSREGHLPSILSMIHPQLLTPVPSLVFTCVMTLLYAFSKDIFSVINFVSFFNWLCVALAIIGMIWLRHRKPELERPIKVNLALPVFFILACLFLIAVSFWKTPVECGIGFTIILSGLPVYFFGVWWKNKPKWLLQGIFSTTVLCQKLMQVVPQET
T3 sequence (P08195 103-630 partner): as the sequence (P08195 103-630 partner) above

LAT1 [5] = target: T1, LAT1; test: cryo-EM structure (outward-open, nanodisc)

T1 sequence (Q01650 whole entry): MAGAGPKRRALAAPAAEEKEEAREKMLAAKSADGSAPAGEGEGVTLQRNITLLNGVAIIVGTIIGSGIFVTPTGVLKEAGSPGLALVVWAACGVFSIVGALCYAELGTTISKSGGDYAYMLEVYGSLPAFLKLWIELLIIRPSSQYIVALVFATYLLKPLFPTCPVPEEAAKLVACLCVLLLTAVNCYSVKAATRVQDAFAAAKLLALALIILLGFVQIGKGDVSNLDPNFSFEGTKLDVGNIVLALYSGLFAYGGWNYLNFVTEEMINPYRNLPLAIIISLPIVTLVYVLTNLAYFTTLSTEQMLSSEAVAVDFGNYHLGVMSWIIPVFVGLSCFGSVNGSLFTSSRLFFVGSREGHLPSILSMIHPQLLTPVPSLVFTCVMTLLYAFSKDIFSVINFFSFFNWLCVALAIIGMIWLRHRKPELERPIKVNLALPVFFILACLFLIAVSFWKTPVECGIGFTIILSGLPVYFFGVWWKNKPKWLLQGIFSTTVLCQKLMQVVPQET
T1 sequence (P08195 103-630 partner): as the sequence (P08195 103-630 partner) above

NC1(C(=O)O)CC2CCC1C2 (centres unmarked) [BCH, 2-aminobicyclo[2.2.1]heptane-2-carboxylic acid]
cryo-EM structure (3.7 Å, occluded); cis inhibition and counterflow assays in oo (LAT1 [1]): BCH is bound in the canonical substrate-binding pocket, with its carboxy and amino moieties recognized

Nc1cc(COc2c(Cl)cc(C[C@H](N)C(=O)O)cc2Cl)c2oc(-c3ccccc3)nc2c1 [JPH203, (S)-2-amino-3-(4-((5-amino-2-phenylbenzo [d]oxazol-7-yl)methoxy)-3,5-dichlorophenyl) propanoic acid]
IC50 (LAT1 [2]): 542 nM | IC50 (LAT1 [3]): 36 nM | inhibition of L-[14C]Leu uptake in Xenopus oocytes (LAT1 [4]): the variant F400V retained its activity and was sensitive to JPH203

N[C@@H](Cc1ccc(N(CCCl)CCCl)cc1)C(=O)O [melphalan]
cryo-EM structure (outward-open, nanodisc) (LAT1 [5]): bis-(2-chloroethyl)amino side group is placed in the space surrounded by TM3, TM6a and TM10
